Measured values reported in article PMC10932281, “A Combination of β-Aescin and Newly Synthesized Alkylamidobetaines as Modern Components Eradicating the Biofilms of Multidrug-Resistant Clinical Strains of Candida glabrata” (International Journal of Molecular Sciences, 2024).
In brackets after ≈: the same amount, converted by molar mass.

Tests used:
Assay type in all cases: cell-based, Candida glabrata
C. glabrata 2586 [1] = experiment: FICI checkerboard, β-aescin with antifungal drugs; details: for FICI: combination with β-aescin
C. glabrata 2586 [2] = experiment: Interaction of AABs (3 µM) with antifungal agents, modified checkerboard; details: for Multiplicity factor (MF) with C9: C9 3 µM; for MIC90 of antimycotic combined with C9: C9 at constant 3 µM; for MIC90 of antimycotic combined with C9 / MIC90 of antimycotic combined with C11 / MIC90 of antimycotic combined with C13 / MIC90 of antimycotic combined with C15: dilutions in µg/mL; for Multiplicity factor (MF) with C11: C11 3 µM; for MIC90 of antimycotic combined with C11: C11 at constant 3 µM; for Multiplicity factor (MF) with C13: C13 3 µM; for MIC90 of antimycotic combined with C13: C13 at constant 3 µM; for Multiplicity factor (MF) with C15: C15 3 µM; for MIC90 of antimycotic combined with C15: C15 at constant 3 µM
C. glabrata ATCC 90030 [3] = experiment: as above; details: for Multiplicity factor (MF) with C9: C9 3 µM, |MF| = MIC90 alone/MIC90 with AAB; for MIC90 of antimycotic combined with C9: C9 at constant 3 µM; for MIC90 of antimycotic combined with C9 / MIC90 of antimycotic combined with C11 / MIC90 of antimycotic combined with C13 / MIC90 of antimycotic combined with C15: dilutions in µg/mL; for Multiplicity factor (MF) with C11: C11 3 µM; for MIC90 of antimycotic combined with C11: C11 at constant 3 µM; for Multiplicity factor (MF) with C13: C13 3 µM; for MIC90 of antimycotic combined with C13: C13 at constant 3 µM; for Multiplicity factor (MF) with C15: C15 3 µM; for MIC90 of antimycotic combined with C15: C15 at constant 3 µM
[4] = system: C. glabrata 2586 clinical strain; experiment: MIC90/MFC, EUCAST broth microdilution; details: Nakaseomyces glabratus; for MFC: read-out: MFC; for MIC90: read-out: MIC90
C. glabrata ATCC 90030 [5] = experiment: MIC90/MFC, EUCAST broth microdilution; details: Nakaseomyces glabratus, ATCC90030, ATCC 90030; for MFC: read-out: MFC; for MIC90: read-out: MIC90
C. glabrata 2853 [6] = experiment: Interaction of AABs (3 µM) with antifungal agents, modified checkerboard; details: for Multiplicity factor (MF) with C9: C9 3 µM; for MIC90 of antimycotic combined with C9: C9 at constant 3 µM; for MIC90 of antimycotic combined with C9 / MIC90 of antimycotic combined with C11 / MIC90 of antimycotic combined with C13 / MIC90 of antimycotic combined with C15: dilutions in µg/mL; for Multiplicity factor (MF) with C11: C11 3 µM; for MIC90 of antimycotic combined with C11: C11 at constant 3 µM; for Multiplicity factor (MF) with C13: C13 3 µM; for MIC90 of antimycotic combined with C13: C13 at constant 3 µM; for Multiplicity factor (MF) with C15: C15 3 µM; for MIC90 of antimycotic combined with C15: C15 at constant 3 µM
[7] = system: C. glabrata strains (ATCC 90030, 2586, 2853); experiment: Interaction of AABs with antifungal agents, statements for all tested strains together; details: all of the tested C. glabrata strains; AABs 3 µM
C. glabrata ATCC 90030 [8] = experiment: FICI checkerboard, β-aescin with antifungal drugs; details: for FICI: combination with β-aescin
[9] = system: C. glabrata 2853 clinical strain; experiment: MIC90/MFC, EUCAST broth microdilution; details: Nakaseomyces glabratus; for MFC: read-out: MFC; for MIC90: read-out: MIC90
C. glabrata 2853 [10] = experiment: FICI checkerboard, β-aescin with antifungal drugs; details: for FICI: combination with β-aescin

| Compound | Multiplicity factor (MF) with C11 (C. glabrata 2586 [2]) | MIC90 of antimycotic combined with C11 (C. glabrata 2586 [2]) | Multiplicity factor (MF) with C13 (C. glabrata 2586 [2]) | MIC90 of antimycotic combined with C13 (C. glabrata 2586 [2]) | Multiplicity factor (MF) with C15 (C. glabrata 2586 [2]) | Multiplicity factor (MF) with C9 (C. glabrata ATCC 90030 [3]) | MIC90 of antimycotic combined with C9 (C. glabrata ATCC 90030 [3]) | Multiplicity factor (MF) with C11 (C. glabrata ATCC 90030 [3]) | MIC90 of antimycotic combined with C11 (C. glabrata ATCC 90030 [3]) | Multiplicity factor (MF) with C13 (C. glabrata ATCC 90030 [3]) | MIC90 of antimycotic combined with C13 (C. glabrata ATCC 90030 [3]) | Multiplicity factor (MF) with C15 (C. glabrata ATCC 90030 [3]) | MFC [4] | MIC90 [4] | MFC (C. glabrata ATCC 90030 [5]) | MIC90 (C. glabrata ATCC 90030 [5]) | FICI (C. glabrata ATCC 90030 [8]) | MFC [9] | MIC90 [9] | FICI (C. glabrata 2853 [10]) | further results |
| --- | --- | --- | --- | --- | --- | --- | --- | --- | --- | --- | --- | --- | --- | --- | --- | --- | --- | --- | --- | --- | --- |
| Nc1nc(=O)[nH]cc1F [5-Fluorocytosine] | 1 | 512 | 1 | 512 | 1 | 1 | 512 | 1 | 512 | 1 | 512 | 1 | 1020 µg/mL (≈ 7930 µM) | 512 µg/mL (≈ 3970 µM) | 1020 µg/mL (≈ 7930 µM) | 512 µg/mL (≈ 3970 µM) | 1.5 | 512 µg/mL (≈ 3970 µM) | 256 µg/mL (≈ 1980 µM) | 1.5 | FICI (C. glabrata 2586 [1]): 1.5; Multiplicity factor (MF) with C9 (C. glabrata 2586 [2]): 1; MIC90 of antimycotic combined with C9 (C. glabrata 2586 [2]): 512; MIC90 of antimycotic combined with C15 (C. glabrata 2586 [2]): 512; MIC90 of antimycotic combined with C15 (C. glabrata ATCC 90030 [3]): 512; Multiplicity factor (MF) with C9 (C. glabrata 2853 [6]): 1; MIC90 of antimycotic combined with C9 (C. glabrata 2853 [6]): 256; Multiplicity factor (MF) with C11 (C. glabrata 2853 [6]): 1; MIC90 of antimycotic combined with C11 (C. glabrata 2853 [6]): 256; Multiplicity factor (MF) with C13 (C. glabrata 2853 [6]): 1; MIC90 of antimycotic combined with C13 (C. glabrata 2853 [6]): 256; Multiplicity factor (MF) with C15 (C. glabrata 2853 [6]): 1; MIC90 of antimycotic combined with C15 (C. glabrata 2853 [6]): 256; MF with AABs [7]: 1 |
| CC[C@H](C)C[C@H](C)CCCCCCCCC(=O)N[C@H]1C[C@@H](O)[C@@H](NCCN)NC(=O)[C@@H]2[C@@H](O)CCN2C(=O)[C@H]([C@H](O)CCN)NC(=O)[C@H]([C@H](O)[C@@H](O)c2ccc(O)cc2)NC(=O)[C@@H]2C[C@@H](O)CN2C(=O)[C@H]([C@@H](C)O)NC1=O [Caspofungin] |  |  |  |  |  | 1 | 0.06 | 1 | 0.06 | 1 | 0.06 |  | 0.06 µg/mL (≈ 0.0549 µM) | 0.03 µg/mL (≈ 0.0274 µM) | 0.06 µg/mL (≈ 0.0549 µM) | 0.06 µg/mL (≈ 0.0549 µM) | 0.75 | 0.06 µg/mL (≈ 0.0549 µM) | 0.03 µg/mL (≈ 0.0274 µM) | 0.75 | Type of interaction with β-AE (by FICI) (C. glabrata 2586 [1]): additive; MF with AABs [7]: 1; Type of interaction with β-AE (by FICI) (C. glabrata ATCC 90030 [8]): additive; Type of interaction with β-AE (by FICI) (C. glabrata 2853 [10]): additive |
| CC[C@@H]([C@H](C)O)n1ncn(-c2ccc(N3CCN(c4ccc(OC[C@@H]5CO[C@@](Cn6cncn6)(c6ccc(F)cc6F)C5)cc4)CC3)cc2)c1=O [Posaconazole] | 2 | 256 | 2 | 256 | 1 | two-fold |  | 8 | 32 | 8 | 32 | two-fold | 1020 µg/mL (≈ 1460 µM) | 512 µg/mL (≈ 731 µM) | 1020 µg/mL (≈ 1460 µM) | 256 µg/mL (≈ 365 µM) | 1 | 256 µg/mL (≈ 365 µM) | 1 µg/mL (≈ 1.43 µM) | 0.562 | FICI (C. glabrata 2586 [1]): 1.002; Multiplicity factor (MF) with C9 (C. glabrata 2586 [2]): 1; Multiplicity factor (MF) with C9 (C. glabrata 2586 [2]; listed as posaconazole): not observed; Multiplicity factor (MF) with C15 (C. glabrata 2586 [2]; listed as posaconazole): not observed; Multiplicity factor (MF) with C9 (C. glabrata 2853 [6]): 8 (8); Multiplicity factor (MF) with C9 (C. glabrata 2853 [6]; listed as posaconazole): 8; MIC90 of antimycotic combined with C9 (C. glabrata 2853 [6]): 8 (8); Multiplicity factor (MF) with C11 (C. glabrata 2853 [6]): 4 (4); Multiplicity factor (MF) with C11 (C. glabrata 2853 [6]; listed as posaconazole): 4; MIC90 of antimycotic combined with C11 (C. glabrata 2853 [6]): 4 (4); Multiplicity factor (MF) with C13 (C. glabrata 2853 [6]): 4 (4); Multiplicity factor (MF) with C13 (C. glabrata 2853 [6]; listed as posaconazole): 4; MIC90 of antimycotic combined with C13 (C. glabrata 2853 [6]): 4 (4); Multiplicity factor (MF) with C15 (C. glabrata 2853 [6]): 256 (256); Multiplicity factor (MF) with C15 (C. glabrata 2853 [6]; listed as posaconazole): 256; MIC90 of antimycotic combined with C15 (C. glabrata 2853 [6]): 256 (256); Type of interaction with β-AE (by FICI) (C. glabrata ATCC 90030 [8]): additive; FICI (C. glabrata ATCC 90030 [8]; listed as posaconazole): 1.0; Type of interaction with β-AE (by FICI) (C. glabrata 2853 [10]): additive |
| C[C@@H](c1ncncc1F)[C@](O)(Cn1cncn1)c1ccc(F)cc1F [Voriconazole] | 64 | 8 | 64 | 8 | 64 | 64 | 8 | 64 | 8 | 64 | 8 | 64 | 1020 µg/mL (≈ 2930 µM) | 512 µg/mL (≈ 1470 µM) | 1020 µg/mL (≈ 2930 µM) | 512 µg/mL (≈ 1470 µM) | 1 | 512 µg/mL (≈ 1470 µM) | 2 µg/mL (≈ 5.73 µM) | 2.5 | Type of interaction with β-AE (by FICI) (C. glabrata 2586 [1]): additive; MIC90 of antimycotic combined with C9 (C. glabrata 2586 [2]): 64; MIC90 of antimycotic combined with C15 (C. glabrata 2586 [2]): 8; MIC90 of antimycotic combined with C15 (C. glabrata ATCC 90030 [3]): 8; Multiplicity factor (MF) with C9 (C. glabrata 2853 [6]): 1; Multiplicity factor (MF) with C9 (C. glabrata 2853 [6]; listed as voriconazole): did not alter the level of activity; MIC90 of antimycotic combined with C9 (C. glabrata 2853 [6]): 2; Multiplicity factor (MF) with C11 (C. glabrata 2853 [6]): 2; Multiplicity factor (MF) with C11 (C. glabrata 2853 [6]; listed as voriconazole): twice; MIC90 of antimycotic combined with C11 (C. glabrata 2853 [6]): 1; Multiplicity factor (MF) with C13 (C. glabrata 2853 [6]): 2; Multiplicity factor (MF) with C13 (C. glabrata 2853 [6]; listed as voriconazole): twice; MIC90 of antimycotic combined with C13 (C. glabrata 2853 [6]): 1; Multiplicity factor (MF) with C15 (C. glabrata 2853 [6]): 128; MIC90 of antimycotic combined with C15 (C. glabrata 2853 [6]): 256; Type of interaction with β-AE (by FICI) (C. glabrata ATCC 90030 [8]): additive; FICI (C. glabrata ATCC 90030 [8]; listed as voriconazole): 1.0 |
